From ChEMBL document CHEMBL1152195, “The discovery of AZD5597, a potent imidazole pyrimidine amide CDK inhibitor suitable for intravenous dosing” (Bioorg Med Chem Lett, 2008)
In brackets after ≈: the same amount, converted by molar mass.

Key:
[1] = target: Cyclin-dependent kinase 2 (Homo sapiens, UniProt P24941); assay: Inhibition of CDK2
[2] = target: Cyclin-dependent kinase 1 (Homo sapiens, UniProt P06493); assay: Inhibition of CDK1
LoVo = assay: Antiproliferative activity against human LoVo cells assessed as inhibition of BrdU incorporation after 48 hrs; assay type: functional, cell-based
[3] = Dissociation constant, pKa of the compound; assay type: physicochemical
[4] = target: Cyclin-dependent kinase 9 (Homo sapiens) (UniProt P50750); assay: Inhibition of CDK9
Cyclin-dependent kinase 9 (Homo sapiens), sequence (P50750 whole entry): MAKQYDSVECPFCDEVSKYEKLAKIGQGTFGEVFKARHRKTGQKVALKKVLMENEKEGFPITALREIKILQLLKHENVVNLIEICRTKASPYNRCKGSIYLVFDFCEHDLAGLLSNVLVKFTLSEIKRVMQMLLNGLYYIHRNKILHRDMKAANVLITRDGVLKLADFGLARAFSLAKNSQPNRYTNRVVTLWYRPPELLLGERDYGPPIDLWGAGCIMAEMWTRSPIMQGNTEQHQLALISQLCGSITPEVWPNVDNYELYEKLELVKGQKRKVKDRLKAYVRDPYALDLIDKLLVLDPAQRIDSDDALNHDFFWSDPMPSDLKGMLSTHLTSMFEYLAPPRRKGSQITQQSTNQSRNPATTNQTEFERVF

[5] = Lipophilicity, log D of the compound; assay type: physicochemical; conditions: octanol/water
[6] = Protein binding in rat plasma assessed as fraction unbound; assay type: ADME, cell-free; conditions: read-out: PPB
[7] = target: Voltage-gated inwardly rectifying potassium channel KCNH2 (Homo sapiens, UniProt Q12809); assay: Inhibition of human ERG
Voltage-gated inwardly rectifying potassium channel KCNH2, sequence (Q12809 whole entry): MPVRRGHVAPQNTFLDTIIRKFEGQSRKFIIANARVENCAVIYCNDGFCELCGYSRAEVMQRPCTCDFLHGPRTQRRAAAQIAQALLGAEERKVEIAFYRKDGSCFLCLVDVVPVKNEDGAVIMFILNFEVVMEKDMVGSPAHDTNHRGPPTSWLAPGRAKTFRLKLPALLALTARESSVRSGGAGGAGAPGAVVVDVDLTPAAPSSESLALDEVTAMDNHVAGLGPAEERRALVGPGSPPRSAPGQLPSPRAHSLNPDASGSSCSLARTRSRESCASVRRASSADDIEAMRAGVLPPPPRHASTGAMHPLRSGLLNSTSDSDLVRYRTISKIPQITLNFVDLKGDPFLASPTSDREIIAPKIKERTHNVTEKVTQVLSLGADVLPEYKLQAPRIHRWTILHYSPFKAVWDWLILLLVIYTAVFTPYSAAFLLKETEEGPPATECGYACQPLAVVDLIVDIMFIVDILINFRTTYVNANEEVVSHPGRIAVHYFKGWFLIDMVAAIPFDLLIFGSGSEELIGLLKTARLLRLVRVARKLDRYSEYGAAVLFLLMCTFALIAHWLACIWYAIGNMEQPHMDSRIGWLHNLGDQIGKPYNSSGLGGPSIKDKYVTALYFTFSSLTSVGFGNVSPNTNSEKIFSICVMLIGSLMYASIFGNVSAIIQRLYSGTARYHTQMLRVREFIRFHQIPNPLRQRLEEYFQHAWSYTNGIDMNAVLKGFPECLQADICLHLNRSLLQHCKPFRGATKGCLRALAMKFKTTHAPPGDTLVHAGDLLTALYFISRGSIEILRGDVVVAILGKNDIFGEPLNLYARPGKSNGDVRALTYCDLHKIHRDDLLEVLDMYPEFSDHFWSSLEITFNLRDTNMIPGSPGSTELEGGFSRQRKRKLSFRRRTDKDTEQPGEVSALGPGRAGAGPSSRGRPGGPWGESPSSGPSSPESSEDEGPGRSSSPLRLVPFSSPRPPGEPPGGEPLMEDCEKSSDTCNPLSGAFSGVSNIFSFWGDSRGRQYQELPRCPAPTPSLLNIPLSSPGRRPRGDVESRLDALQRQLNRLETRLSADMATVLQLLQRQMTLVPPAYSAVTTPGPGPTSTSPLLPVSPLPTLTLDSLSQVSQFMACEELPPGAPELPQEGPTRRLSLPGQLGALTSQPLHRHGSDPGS

[8] = Clearance in rat at 2.5 umol/kg, iv; assay type: ADME, organism-based; conditions: in vivo
[9] = Volume of distribution at steady state in rat at 2.5 umol/kg, iv; assay type: ADME, organism-based; conditions: in vivo, read-out: Vdss
[10] = AUC in rat at 2.5 umol/kg, iv; assay type: ADME, organism-based; conditions: plasma
physchem = conditions: buffer, pH 7.4
Description: Equilibrium solubility at pH 7.4 after 24 hrs

[11] = Clearance in rat at 1 umol/kg, iv; assay type: ADME, organism-based; conditions: in vivo
[12] = Volume of distribution at steady state in rat at 1 umol/kg, iv; assay type: ADME, organism-based; conditions: in vivo, read-out: Vdss
[13] = AUC in rat at 1 umol/kg, iv; assay type: ADME, organism-based; conditions: plasma
[14] = Stability in rat plasma; assay type: ADME, cell-free; conditions: read-out: Stability
[15] = Stability in dog plasma; assay type: ADME, cell-free, Canis lupus familiaris; conditions: read-out: Stability
[16] = Stability in human plasma; assay type: ADME, cell-free; conditions: read-out: Stability
[17] = Protein binding in nude mouse plasma assessed as fraction unbound; assay type: ADME, cell-free; conditions: read-out: PPB
[18] = Protein binding in Han/Wistar rat plasma assessed as fraction unbound; assay type: ADME, cell-free; conditions: read-out: PPB
Plasma = assay: Protein binding in Beagle dog plasma assessed as fraction unbound; assay type: ADME, cell-free, Canis lupus familiaris
[19] = Half life in nude mouse at 5 umol/kg, iv; assay type: ADME, organism-based; conditions: in vivo
[20] = Half life in Han/Wistar rat at 2.5 umol/kg, iv; assay type: ADME, organism-based; conditions: in vivo
[21] = Half life in Beagle dog at 0.2 umol/kg, iv; assay type: ADME, organism-based, Canis lupus familiaris; conditions: in vivo
[22] = Clearance in nude mouse at 5 umol/kg, iv; assay type: ADME, organism-based; conditions: in vivo
[23] = Clearance in Han/Wistar rat at 2.5 umol/kg, iv; assay type: ADME, organism-based; conditions: in vivo
[24] = Clearance in Beagle dog at 0.2 umol/kg, iv; assay type: ADME, organism-based, Canis lupus familiaris; conditions: in vivo
[25] = Volume of distribution at steady state in nude mouse at 5 umol/kg, iv; assay type: ADME, organism-based; conditions: in vivo, read-out: Vdss
[26] = Volume of distribution at steady state in Han/Wistar rat at 2.5 umol/kg, iv; assay type: ADME, organism-based; conditions: in vivo, read-out: Vdss
[27] = Volume of distribution at steady state in Beagle dog at 0.2 umol/kg, iv; assay type: ADME, organism-based, Canis lupus familiaris; conditions: in vivo, read-out: Vdss
Mus musculus = assay: AUC in nude mouse at 5 umol/kg, iv; assay type: ADME, organism-based, Plasma; conditions: in vivo
Rattus norvegicus = assay: AUC in Han/Wistar rat at 2.5 umol/kg, iv; assay type: ADME, organism-based, Plasma; conditions: in vivo
Canis familiaris [28] = assay: AUC in Beagle dog at 0.2 umol/kg, iv; assay type: ADME, organism-based, Canis lupus familiaris, Plasma; conditions: in vivo
SW-620 = assay: Antitumor activity against human SW620 cells xenografted nude mouse assessed as inhibition of tumor volume at 15 mg/kg, ip administered thrice a week for 3 weeks; assay type: functional; conditions: SW-620, ip, 504 h, route intraperitoneal
Canis familiaris [29] = organism: Canis familiaris; assay: Clearance in Beagle dog assessed as liver blood flow; assay type: ADME, organism-based, Canis lupus familiaris; conditions: in vivo
Cytochrome P450 3A4 = Cytochrome P450 3A4 (Homo sapiens, UniProt P08684); assay: Inhibition of CYP3A4; assay type: ADME
Cytochrome P450 3A4, sequence (P08684 whole entry): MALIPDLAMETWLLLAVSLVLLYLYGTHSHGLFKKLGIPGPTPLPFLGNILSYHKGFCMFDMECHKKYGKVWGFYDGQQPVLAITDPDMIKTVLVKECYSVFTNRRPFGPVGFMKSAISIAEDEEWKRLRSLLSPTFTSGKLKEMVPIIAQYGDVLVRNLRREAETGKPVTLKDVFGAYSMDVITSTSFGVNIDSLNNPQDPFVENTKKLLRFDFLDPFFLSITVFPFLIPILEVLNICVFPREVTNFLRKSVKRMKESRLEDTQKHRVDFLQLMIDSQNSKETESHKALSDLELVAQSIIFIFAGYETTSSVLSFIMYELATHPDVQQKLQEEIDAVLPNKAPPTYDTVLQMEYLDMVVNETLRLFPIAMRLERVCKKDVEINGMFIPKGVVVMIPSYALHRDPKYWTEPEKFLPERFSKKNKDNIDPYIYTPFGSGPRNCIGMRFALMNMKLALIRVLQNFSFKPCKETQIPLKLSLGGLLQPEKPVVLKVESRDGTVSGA

Cytochrome P450 2D6 = Cytochrome P450 2D6 (Homo sapiens, UniProt P10635); assay: Inhibition of CYP2D6; assay type: ADME
Cytochrome P450 2D6, sequence (P10635 whole entry): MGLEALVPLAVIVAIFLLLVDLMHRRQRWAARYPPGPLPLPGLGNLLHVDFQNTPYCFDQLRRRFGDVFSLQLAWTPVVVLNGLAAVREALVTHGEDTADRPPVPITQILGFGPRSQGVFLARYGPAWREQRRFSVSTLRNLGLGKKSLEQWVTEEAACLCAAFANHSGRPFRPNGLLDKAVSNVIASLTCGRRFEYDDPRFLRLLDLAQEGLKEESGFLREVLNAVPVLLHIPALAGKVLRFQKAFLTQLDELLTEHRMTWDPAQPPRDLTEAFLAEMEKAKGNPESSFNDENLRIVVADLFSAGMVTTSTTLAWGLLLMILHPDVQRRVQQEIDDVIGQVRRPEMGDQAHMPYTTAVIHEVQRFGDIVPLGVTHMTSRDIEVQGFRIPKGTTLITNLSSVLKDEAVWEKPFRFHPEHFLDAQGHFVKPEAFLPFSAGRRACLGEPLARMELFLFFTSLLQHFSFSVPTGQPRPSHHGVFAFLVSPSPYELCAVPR

Cytochrome P450 2C9 = Cytochrome P450 2C9 (Homo sapiens, UniProt P11712); assay: Inhibition of CYP2C9; assay type: ADME
Cytochrome P450 2C9, sequence (P11712 whole entry): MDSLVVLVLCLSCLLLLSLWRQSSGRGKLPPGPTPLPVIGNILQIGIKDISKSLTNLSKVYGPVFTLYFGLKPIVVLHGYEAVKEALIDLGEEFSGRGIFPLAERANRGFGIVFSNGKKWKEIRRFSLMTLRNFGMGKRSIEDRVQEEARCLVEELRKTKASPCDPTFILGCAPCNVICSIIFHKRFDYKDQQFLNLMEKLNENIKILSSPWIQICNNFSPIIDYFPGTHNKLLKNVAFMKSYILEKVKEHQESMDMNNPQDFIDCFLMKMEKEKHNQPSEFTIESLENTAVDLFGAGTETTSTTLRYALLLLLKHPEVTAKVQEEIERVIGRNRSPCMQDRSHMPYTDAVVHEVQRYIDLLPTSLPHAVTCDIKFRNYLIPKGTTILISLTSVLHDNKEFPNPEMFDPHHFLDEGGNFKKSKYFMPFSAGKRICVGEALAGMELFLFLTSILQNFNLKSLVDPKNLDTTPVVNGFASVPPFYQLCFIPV

Cytochrome P450 2C19 = Cytochrome P450 2C19 (Homo sapiens, UniProt P33261); assay: Inhibition of CYP2C19; assay type: ADME
Cytochrome P450 2C19, sequence (P33261 whole entry): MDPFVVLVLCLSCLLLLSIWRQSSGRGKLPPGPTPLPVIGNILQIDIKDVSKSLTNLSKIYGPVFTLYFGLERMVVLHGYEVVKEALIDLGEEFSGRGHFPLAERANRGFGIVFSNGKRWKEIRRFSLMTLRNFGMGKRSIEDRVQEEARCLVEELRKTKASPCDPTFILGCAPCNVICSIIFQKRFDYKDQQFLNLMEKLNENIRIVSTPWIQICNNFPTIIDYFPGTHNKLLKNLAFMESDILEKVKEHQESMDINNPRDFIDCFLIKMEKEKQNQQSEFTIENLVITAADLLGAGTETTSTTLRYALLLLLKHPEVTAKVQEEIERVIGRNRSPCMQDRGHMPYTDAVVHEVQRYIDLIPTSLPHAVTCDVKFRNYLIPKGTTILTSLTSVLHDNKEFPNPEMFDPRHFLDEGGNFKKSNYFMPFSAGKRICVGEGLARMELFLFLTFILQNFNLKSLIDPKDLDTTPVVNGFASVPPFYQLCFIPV

Cytochrome P450 1A2 = target: T1, Cytochrome P450 1A2 (Homo sapiens, UniProt P05177); assay: Inhibition of CYP1A2; assay type: ADME
T1 sequence (P05177 whole entry): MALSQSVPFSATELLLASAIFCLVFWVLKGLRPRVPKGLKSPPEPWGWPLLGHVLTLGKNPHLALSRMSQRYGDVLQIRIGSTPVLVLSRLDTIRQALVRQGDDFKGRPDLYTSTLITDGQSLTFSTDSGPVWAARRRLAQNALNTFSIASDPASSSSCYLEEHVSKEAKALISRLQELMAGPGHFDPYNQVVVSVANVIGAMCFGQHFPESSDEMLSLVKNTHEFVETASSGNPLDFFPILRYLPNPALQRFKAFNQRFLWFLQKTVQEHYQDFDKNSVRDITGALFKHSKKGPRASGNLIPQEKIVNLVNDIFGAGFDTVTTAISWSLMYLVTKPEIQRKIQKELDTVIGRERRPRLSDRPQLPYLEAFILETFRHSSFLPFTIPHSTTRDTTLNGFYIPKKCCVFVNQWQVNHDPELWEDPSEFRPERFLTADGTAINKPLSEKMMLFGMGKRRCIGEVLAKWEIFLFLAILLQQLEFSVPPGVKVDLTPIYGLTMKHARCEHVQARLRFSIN

[30] = Aqueous solubility in saline at pH 5; assay type: physicochemical; conditions: read-out: Activity
[31] = Photostability assessed as half life; assay type: physicochemical
[32] = Hydrolytic stability assessed as half life at pH 4 to 10; assay type: physicochemical; conditions: buffer

Cyclin-dependent kinase 1, sequence (P06493 whole entry): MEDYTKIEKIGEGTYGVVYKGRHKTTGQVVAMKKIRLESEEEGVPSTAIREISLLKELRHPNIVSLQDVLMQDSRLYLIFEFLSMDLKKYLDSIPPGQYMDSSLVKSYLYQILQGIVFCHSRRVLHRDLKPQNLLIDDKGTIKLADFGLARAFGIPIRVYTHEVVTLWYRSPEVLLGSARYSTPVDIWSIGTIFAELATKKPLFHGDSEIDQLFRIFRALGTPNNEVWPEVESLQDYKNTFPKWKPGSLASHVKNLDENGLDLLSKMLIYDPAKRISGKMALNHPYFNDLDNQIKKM

## Cc1ncc(-c2nc(Nc3ccc(C(=O)NCCN(C)C)c(F)c3)ncc2F)n1C(C)C
[1]
  IC50: 2 nM
[2]
  IC50: < 1 nM
LoVo
  IC50: 2 nM
[3]
  pKa: 8.6
[4]
  Activity: 0.003 µM
[5]
  logD: 2.3
[6]
  fraction unbound: 0.07
[7]
  Activity: > 65 µM
[8]
  clearance: 24 mL/min/kg
[9]
  Vd: 9.8 L/kg
[10]
  AUC: 0.8 µM·h
physchem
  solubility thermodynamic at 24 h: > 2700 µM

## Cc1ncc(-c2nc(Nc3ccc(C(=O)N4CC[C@@H](N(C)C)C4)cc3)ncc2F)n1C(C)C
[2]
  IC50: 11 nM
LoVo
  IC50: 70 nM
physchem
  solubility thermodynamic at 24 h: > 2400 µM

## Cc1ncc(-c2ccnc(Nc3ccc(C(=O)NC4CCN(C)CC4)c(F)c3)n2)n1C(C)C
[1]
  IC50: 11 nM
[2]
  IC50: 150 nM
LoVo
  IC50: 200 nM
physchem
  solubility thermodynamic at 24 h: > 2200 µM

## Cc1ncc(-c2ccnc(Nc3ccc(C(=O)N4CCN(C)CC4)cc3)n2)n1C(C)C
[1]
  IC50: 9 nM
[2]
  IC50: 71 nM
LoVo
  IC50: 520 nM
[3]
  pKa: 7

## CN[C@H]1CCN(C(=O)c2ccc(Nc3nccc(-c4cnc(C)n4C(C)C)n3)cc2)C1
[1]
  IC50: 2 nM
[2]
  IC50: 9 nM
LoVo
  IC50: 180 nM

## Cc1ncc(-c2nc(Nc3ccc(C(=O)NC4CCN(C)CC4)cc3)ncc2F)n1C(C)C
[1]
  IC50: 36 nM
[2]
  IC50: 50 nM
LoVo
  IC50: 320 nM
physchem
  solubility thermodynamic at 24 h: > 2500 µM

## CCCN(C)[C@H]1CCN(C(=O)c2ccc(Nc3nccc(-c4cnc(C)n4C(C)C)n3)cc2)C1
[1]
  IC50: 4 nM
[2]
  IC50: 120 nM
LoVo
  IC50: 62 nM

## Cc1ncc(-c2nc(Nc3ccc(C(=O)NC4CCN(C)CC4)c(F)c3)ncc2F)n1C(C)C
[1]
  IC50: 1 nM
[2]
  IC50: 12 nM
LoVo
  IC50: 80 nM
[3]
  pKa: 8.8
[4]
  Activity: 0.013 µM
[5]
  logD: 2.4
[6]
  fraction unbound: 0.06
[8]
  clearance: 16 mL/min/kg
[9]
  Vd: 5.2 L/kg
[10]
  AUC: 1.3 µM·h
physchem
  solubility thermodynamic at 24 h: 270 µM (≈ 127 µg/mL)

## Cc1ncc(-c2nc(Nc3ccc(C(=O)N4CC[C@H](N(C)C)C4)cc3)ncc2F)n1C(C)C
[2]
  IC50: 11 nM
LoVo
  IC50: 37 nM
[3]
  pKa: 7.4
[4]
  Activity: 0.005 µM
[5]
  logD: 2.1
[6]
  fraction unbound: 0.04
[7]
  Activity: 33 µM
[8]
  clearance: 23 mL/min/kg
[9]
  Vd: 3.4 L/kg
[10]
  AUC: 0.8 µM·h
physchem
  solubility thermodynamic at 24 h: > 2100 µM

## Cc1ncc(-c2ccnc(Nc3ccc(C(=O)N4CC[C@H](NC5CC5)C4)cc3)n2)n1C(C)C
[1]
  IC50: < 1 nM
[2]
  IC50: 100 nM
LoVo
  IC50: 250 nM

## Cc1ncc(-c2nc(Nc3ccc(C(=O)N4CCN(C)CC4)cc3)ncc2F)n1C(C)C
[1]
  IC50: 18 nM
[2]
  IC50: 130 nM
LoVo
  IC50: 170 nM
[3]
  pKa: 6.9
physchem
  solubility thermodynamic at 24 h: 60 µM (≈ 26.3 µg/mL)

## Cc1ncc(-c2ccnc(Nc3ccc(C(=O)NCCN(C)C)c(F)c3)n2)n1C(C)C
[2]
  IC50: 29 nM
LoVo
  IC50: 3 nM
physchem
  solubility thermodynamic at 24 h: > 1900 µM

## Cc1ncc(-c2nc(Nc3ccc(C(=O)N4CCCN(C)CC4)cc3)ncc2F)n1C(C)C
[1]
  IC50: 2 nM
[2]
  IC50: 5 nM
LoVo
  IC50: 40 nM
[3]
  pKa: 8.1
[4]
  Activity: 0.012 µM
[5]
  logD: 2
[6]
  fraction unbound: 0.07
[7]
  Activity: > 32 µM
[11]
  clearance: 28 mL/min/kg
[12]
  Vd: 1.5 L/kg
[13]
  AUC: 0.3 µM·h
physchem
  solubility thermodynamic at 24 h: > 2600 µM

## CN[C@H]1CCN(C(=O)c2ccc(Nc3ncc(F)c(-c4cnc(C)n4C(C)C)n3)cc2)C1
[14]
  half-life: > 18 h
[15]
  half-life: > 18 h
[16]
  half-life: > 18 h
[17]
  fraction unbound: 0.16
[18]
  fraction unbound: 0.04
Plasma
  PPB: > 67%
[19]
  half-life: 3.4 h
[20]
  half-life: 3.6 h
[21]
  half-life: 32.3 h
[22]
  clearance: 35 mL/min/kg
[23]
  clearance: 30 mL/min/kg
[24]
  clearance: 19 mL/min/kg
[25]
  Vd: 5.1 L/kg
[26]
  Vd: 6.4 L/kg
[27]
  Vd: 40.4 L/kg
Mus musculus
  AUC: 2.4 µM·h
Rattus norvegicus
  AUC: 1.38 µM·h
Canis familiaris [28]
  AUC: 0.18 µM·h
SW-620
  inhibition in vivo at 15 mg/kg: 55%
Canis familiaris [29]
  %hepatic blood flow: 58%
[1]
  IC50: 2 nM
[2]
  IC50: 2 nM
LoVo
  IC50: 39 nM
[5]
  logD: 1.45
[7]
  Activity: 95 µM
Cytochrome P450 3A4
  Activity: > 10 µM
Cytochrome P450 2D6
  Activity: > 10 µM
Cytochrome P450 2C9
  Activity: > 10 µM
Cytochrome P450 2C19
  Activity: > 10 µM
Cytochrome P450 1A2
  Activity: > 10 µM
[30]
  solubility: > 50 µM
[31]
  half-life: > 24 h
[32]
  half-life: > 100 days

## Cc1ncc(-c2ccnc(Nc3ccc(C(=O)NC4CCN(C)CC4)cc3)n2)n1C(C)C
[1]
  IC50: 37 nM
[2]
  IC50: 180 nM
LoVo
  IC50: 2100 nM
